Legend:
human BTK kinase (hBTK) = biological target: T1, human BTK kinase (hBTK) (Homo sapiens, UniProt Q06187); test: BTK kinase inhibition assay (Kinase Profiler radiometric protein kinase assay, Eurofins); type: biochemical; settings: radiometric [γ-33P-ATP] assay, 40 minutes at room temperature, 250 μM substrate
T1 construct: purchased Eurofins Pharma Discovery Services UK Limited (contract assay, Kinase Profiler)
Procedure: In vitro potency of selected compound was defined against human BTK kinase (hBTK) using Kinase Profiler radiometric protein kinase assays performed at Eurofins Pharma Discovery Services UK Limited.
hBTK kinase is diluted in buffer and all compounds were prepared to 50× final assay concentration in 100% DMSO. This working stock of the compound was added to the assay well as the first component in the reaction, followed by the remaining components as detailed in the assay protocol listed above. The reaction was initiated by the addition of the MgATP mix. The kinase reaction was performed at room temperature for 40 minutes in presence of 250 μM substrate, 10 mM MgAcetate, [γ-33P-ATP] (specific activity approx. 500 cpm/pmol, concentration as required) and variable test article concentrations. The ATP concentrations in the assays were with 15 μM of the apparent. The reaction was stopped by the addition of 3% phosphoric acid solution. 10 μL of the reaction is then spotted onto a P30 filtermat and washed three times for 5 minutes in 75 mM phosphoric acid and once in methanol prior to drying and scintillation counting. In addition positive control wells contain all components of the reaction, except the compound of interest; however, DMSO (at a final concentration of 2%) were included in these wells to control for solvent effects as well as blank wells contain all components of the reaction, with a reference inhibitor replacing the compound of interest. This abolishes kinase activity and establishes the base-line (0% kinase activity remaining).

BTK = BTK (Homo sapiens, UniProt Q06187); test: BTK enzyme off-rate determination (dilution kinetic experiments); type: biochemical; settings: 10-30 nM compound pre-incubated with 7 nM enzyme, 1000 uM ATP, 1 h, diluted 250×, monitored 8 h
Procedure: 10-30 nM compound was pre-incubated with 7 nM enzyme in the presence of 1000 uM ATP for 1 h. The [I]-[E] complex was diluted 250× into an assay buffer with 1000 uM ATP and 2uM substrate peptide. Enzyme activity in the diluted samples was monitored in real time assay over period of 8 h. The progress curves were fit with time dependent equation to determine apparent Kobs and residence time of the compound. […] Consistent with covalent inhibition of BTK.

Splenocytes = test: Splenic cell proliferation assay (anti-IgM stimulated); type: cell-based; settings: Splenocyte; CD1 mouse splenocytes, 1 h pre-treatment, 2.5 ug/ml anti-IgM F(ab')2 for 72 h, Cell Titer-Glo; read-out: EC50 (inhibition of splenic cell proliferation)
Procedure: Proliferation of splenocytes in response to anti-IgM can be blocked by inhibition of Btk.
Splenocytes were obtained from 6 week old male CD1 mice (Charles River Laboratories Inc.). Mouse spleens were manually disrupted in PBS and filtered using a 70 um cell strainer followed by ammonium chloride red blood cell lysis. Cells were washed, resuspended in Splenocyte Medium (HyClone RPMI supplemented with 10% heat-inactivated FBS, 0.5× non-essential amino acids, 10 mM HEPES, 50 uM beta mercaptoethanol) and incubated at 37° C., 5% CO2 for 2 h to remove adherent cells. Suspension cells were seeded in 96 well plates at 50,000 cells per well and incubated at 37° C., 5% CO2 for 1 h. Splenocytes were pre-treated in triplicate with 10,000 nM curves of Formula 1 compounds for 1 h, followed by stimulation of cell proliferation with 2.5 ug/ml anti-IgM F(ab′)2 (Jackson ImmunoResearch) for 72 h. Cell proliferation was measured by Cell Titer-Glo Luminescent Assay (Promega). EC50 values (50% proliferation in the presence of compound as compared to vehicle treated controls) were calculated from dose response compound curves using GraphPad Prism Software EC50 values are reported in Table 3: […]

[1] = system: TMD-8 human activated B cell diffuse large B cell lymphoma cells; test: TMD-8 survival assay; type: cell-based; settings: TMD8, TMD-8 cells, 72 h treatment, Cell Titer-Glo
Procedure: BTK inhibitors affect the survival of B-cell lymphomas. TMD-8 human activated B cell diffuse large B cell lymphoma cells were seeded in 96-well plates at a density of 20,000 cells/well in HyClone RPMI supplemented with 10% FBS (Fisher)/1% Penicillin/Streptomycin (HyClone) and incubated at 37° C., 5% CO2. Cells were treated in triplicate with 1,000 nM or 100 nM curves of compounds for 72 h. Cell survival was measured by Cell Titer-Glo Luminescent Assay (Promega). EC50 values (50% proliferation in the presence of compound as compared to vehicle treated controls) were calculated from dose response compound curves using GraphPad Prism Software.

Chain of BTK (Q06187 whole entry): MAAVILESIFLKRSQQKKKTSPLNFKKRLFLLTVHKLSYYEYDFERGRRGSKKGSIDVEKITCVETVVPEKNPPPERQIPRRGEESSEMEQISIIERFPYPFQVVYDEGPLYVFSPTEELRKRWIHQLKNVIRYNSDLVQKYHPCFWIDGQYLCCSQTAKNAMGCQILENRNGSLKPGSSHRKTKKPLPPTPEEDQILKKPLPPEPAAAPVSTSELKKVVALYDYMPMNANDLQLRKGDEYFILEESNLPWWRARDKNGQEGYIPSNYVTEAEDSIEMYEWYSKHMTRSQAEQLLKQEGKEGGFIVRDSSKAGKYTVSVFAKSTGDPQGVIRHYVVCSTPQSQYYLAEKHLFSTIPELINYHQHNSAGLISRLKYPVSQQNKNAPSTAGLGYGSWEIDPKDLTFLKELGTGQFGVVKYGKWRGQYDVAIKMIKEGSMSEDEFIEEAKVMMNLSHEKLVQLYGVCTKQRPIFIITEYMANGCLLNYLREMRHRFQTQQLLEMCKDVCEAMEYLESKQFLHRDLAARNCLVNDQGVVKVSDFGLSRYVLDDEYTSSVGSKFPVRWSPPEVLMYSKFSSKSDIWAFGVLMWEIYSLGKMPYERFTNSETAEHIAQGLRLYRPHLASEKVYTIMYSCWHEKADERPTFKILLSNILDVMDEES
T1 sequence (Q06187 whole entry): as above

Structure (SMILES): C=CC(=O)N[C@H]1C[C@@H](n2nc(-c3ccc(Oc4cc(F)cc(OCc5cnc(C)nc5)c4)cc3)c3c(N)ncnc32)C1 [Compound 27]
- IC50 (human BTK kinase (hBTK)): 8 nM
- Residence time half life (1/Kobs) (BTK): >10 h
- residence time (BTK; read-out: Residence time half life (1/Kobs)): > 600 min
- EC50 (Splenocytes): 0.8 nM
- EC50 [1]: 4.7 nM

Reference: patent publication US20180179210A1, “Inhibitors of the TEC Kinase Enzyme Family” (Pharmascience Inc., priority 2015, published 2018)
